Tests used:
[1] = test system: EBP (zymostenol accumulation in EpiSC-derived OPCs); assay: GC/MS-based sterol profiling, zymostenol accumulation in OPCs; assay type: cell-based, mouse; settings: Mus musculus, 24 h, EpiSC-derived OPCs, 24 hr treatment, 8 doses from 0.15 nM to 333 nM; read-out: Zymostenol GCMS EC50
Outline: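 EpiSC-derived OPCs (100,000/well) were treated 24 h in N2B27 without growth factors. Sterols were TMS-derivatized and analysed by GC/MS full-scan EI, quantified against cholesterol-d7. Zymostenol was normalized to the level after 24 h with 100 nM positive control reference.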

[2] = target: human EBP (Homo sapiens (Human), UniProt Q15125); assay: Competition binding assay (SPA, [3H]-Ifenprodil) to determine compound affinity to EBP; settings: [3H]-Ifenprodil 10 nM, HEK293 membrane overexpressing human EBP, Ki=IC50/(1+[L]/Kd); read-out: hEBP SPA Ki
human EBP, sequence (Q15125 whole entry): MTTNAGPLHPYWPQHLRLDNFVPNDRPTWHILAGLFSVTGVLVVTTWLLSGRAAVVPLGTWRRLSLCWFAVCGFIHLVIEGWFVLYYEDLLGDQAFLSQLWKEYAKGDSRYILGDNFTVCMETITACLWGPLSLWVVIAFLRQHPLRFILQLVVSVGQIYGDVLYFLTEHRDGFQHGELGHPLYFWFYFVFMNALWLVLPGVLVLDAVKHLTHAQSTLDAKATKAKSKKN
Procedure: Membrane preparation: To examine compound binding affinity to EBP, human EBP was overexpressed in human embryonic kidney 293 cells. Cell pellet was lysed in 10 times weight binding buffer (50 mM Tris, 5 mM MgCl2, 0.1 mM EDTA, lx protease inhibitor cocktail, pH 7.5) on ice by using a dounce homogenizer. The solution was centrifuged at 25,000 g for 50 min at 4° C. The membrane pellet was re-suspended in binding buffer and run through a 25 5/8 gauge needle. After checking the concentration by Bradford assay, the whole cell membrane solution was adjusted to 20 mg/mL and stored at −80° C.
This binding solution was centrifuged at 400 g for 5 minutes to collect the bead/membrane mixture. After re-suspending the pellet in binding buffer at the same calculated volume with 0.01% BSA (Sigma A1933), the bead/membrane mixture was added in 384-well low-binding surface plate (PerkinElmer Cat #6057480) at 25 μl/well. Radioligand at different concentrations with and without the non-radio-labeled same ligand 5 uM (for nonspecific and total signal, respectively) was added to bring final volume to 50 µl/well with DMSO concentration at 0.1%. At equilibrium (3 hours after ligand addition), radiometric signal CPM was counted by using a Microbeta2 microplate counter (Perkinelmer).
Competition binding assay to determine compound affinity: The same conditions of the radioligand Kd study were used for compound single dose percentage inhibition and equilibrium dissociation constant Ki examinations, except 50 nL compound DMSO stock was pre-added in 384-well low-binding surface plate (PerkinElmer Cat #6057480) by Echo 550 (Labcyte) to reach the final concentration for single dose test at 1 uM, and dose response test from 0.06 nM to 5 uM (8 dose, 5 times dilution). A pre-incubated bead/membrane mixture was added in compound plate at 0.3 mg beads and […] membrane per well. […] At equilibrium (3 hours after ligand addition), radiometric signal was counted as described above. The percentage inhibition of compound at each testing concentration was calculated by normalizing each condition's CPM readout to full block (5 uM non-radiolabeled ligand) and non-block (DMSO) control conditions. Compound binding inhibition IC50 was determined by nonlinear regression fitting of percentage inhibition plot against compound concentration. Compound Ki was calculated from the equation Ki=IC50/(1+[L]/Kd), which [L] was radioligand concentration used in assay. All tests had N bigger or equal to 2.

| Compound | EC50 [1] | Ki [2] |
| --- | --- | --- |
| O=S1(=O)CC2(CCN([C@@H]3CO[C@@H](c4ccc(C(F)(F)F)cc4)C3)C2)C1 (stereo in doubt) [19B*, 6-((3S,5R)-5-(4-(trifluoromethyl)phenyl)tetrahydrofuran-3-yl)-2-thia-6-azaspiro[3.4]octane 2,2-dioxide] | 0.01 µM | 0.027 µM |
| O=S1(=O)CC2(CCN([C@@H]3CO[C@H](c4ccc(C(F)(F)F)cc4)C3)C2)C1 (stereo in doubt) [19C*, 6-((3S,5S)-5-(4-(Trifluoromethyl)phenyl)tetrahydrofuran-3-yl)-2-thia-6-azaspiro[3.4]octane 2,2-dioxide] | 0.11 µM | 0.034 µM |
| O=S1(=O)CC2(CCN([C@H]3CO[C@H](c4ccc(C(F)(F)F)cc4)C3)C2)C1 (stereo in doubt) [19D*, 6-((3R,5S)-5-(4-(trifluoromethyl)phenyl)tetrahydrofuran-3-yl)-2-thia-6-azaspiro[3.4]octane 2,2-dioxide] | 0.11 µM | 0.032 µM |
| CCn1nc(-c2ccc(C(F)(F)F)nc2)nc1[C@H]1CC[C@H](N2CCC3(C2)CS(=O)(=O)C3)CC1 [36A*, 6-((1r,4r)-4-(1-Ethyl-3-(6-(trifluoromethyl)pyridin-3-yl)-1H-1,2,4-triazol-5-yl)cyclohexyl)-2-thia-6-azaspiro[3.4]octane 2,2-dioxide] | 0.0086 µM | 0.04 µM |
| CCn1nc(-c2ccc(C(F)(F)F)nc2)nc1[C@H]1CC[C@@H](N2CCC3(C2)CS(=O)(=O)C3)CC1 [36B*, 6-((1s,4s)-4-(1-ethyl-3-(6-(trifluoromethyl)pyridin-3-yl)-1H-1,2,4-triazol-5-yl)cyclohexyl)-2-thia-6-azaspiro[3.4]octane 2,2-dioxide] | 0.023 µM | 0.057 µM |
| O=S1(=O)CC2(CCN([C@@H]3CC[C@@H](c4ccc(C(F)(F)F)cc4)C3)C2)C1 [Compound 1B, 6-((1R,3R)-3-(4-(trifluoromethyl)phenyl)cyclopentyl)-2-thia-6-azaspiro[3.4]octane 2,2-dioxide] | 0.0026 µM | 0.1 µM |
| Cn1nc(C(F)(F)F)cc1[C@H]1CC[C@@H](N2CCC3(C2)CS(=O)(=O)C3)CC1 [Compound 2A, 6-((1s,4s)-4-(1-methyl-3-(trifluoromethyl)-1H-pyrazol-5-yl)cyclohexyl)-2-thia-6-azaspiro[3.4]octane 2,2-dioxide] | 0.056 µM | 0.02 µM |
| Cn1nc(C(F)(F)F)cc1[C@H]1CC[C@H](N2CCC3(C2)CS(=O)(=O)C3)CC1 [Compound 2B, 6-((1r,4r)-4-(1-methyl-3-(trifluoromethyl)-1H-pyrazol-5-yl)cyclohexyl)-2-thia-6-azaspiro[3.4]octane 2,2-dioxide] | 0.012 µM | 0.02 µM |
| O=S1(=O)CC2(CCN([C@H]3CC[C@H](c4ccc(C(F)(F)F)cc4)CC3)C2)C1 [Compound 3A, 6-((1r,4r)-4-(4-(trifluoromethyl)phenyl)cyclohexyl)-2-thia-6-azaspiro[3.4]octane 2,2-dioxide] | 0.0021 µM | 0.02 µM |
| O=S1(=O)CC2(CCN([C@H]3CC[C@@H](c4ccc(C(F)(F)F)cc4)CC3)C2)C1 [Compound 3B, 6-((1s,4s)-4-(4-(trifluoromethyl)phenyl)cyclohexyl)-2-thia-6-azaspiro[3.4]octane 2,2-dioxide] | 0.016 µM | 0.062 µM |
| O=S1(=O)CC2(CCN(C3CCN(c4ccc(C(F)(F)F)cc4)CC3)C2)C1 [Compound 4, 6-(1-(4-(trifluoromethyl)phenyl)piperidin-4-yl)-2-thia-6-azaspiro[3.4]octane 2,2-dioxide] | 0.0025 µM | 0.026 µM |
| O=S1(=O)CC2(CCN(C3CCN(c4ccc(C(F)(F)F)nc4)CC3)C2)C1 [Compound 5, 6-(1-(6-(trifluoromethyl)pyridin-3-yl)piperidin-4-yl)-2-thia-6-azaspiro[3.4]octane 2,2-dioxide] | 0.05 µM | 0.067 µM |
| O=S1(=O)CC2(CCN(C3CCN(c4ccc(C(F)(F)F)cn4)CC3)C2)C1 [Compound 6, 6-(1-(5-(trifluoromethyl)pyridin-2-yl)piperidin-4-yl)-2-thia-6-azaspiro[3.4]octane 2,2-dioxide] | 0.014 µM | 0.037 µM |
| Cc1cc(C(F)(F)F)cnc1N1CCC(N2CCC3(C2)CS(=O)(=O)C3)CC1 [Compound 7, 6-(1-(3-methyl-5-(trifluoromethyl)pyridin-2-yl)piperidin-4-yl)-2-thia-6-azaspiro[3.4]octane 2,2-dioxide] | 0.034 µM | 0.01 µM |
| CC(C)n1nc(C(F)(F)F)cc1[C@H]1CC[C@H](N2CCC3(C2)CS(=O)(=O)C3)CC1 [Compound 8A, 6-((1r,4r)-4-(1-isopropyl-3-(trifluoromethyl)-1H-pyrazol-5-yl)cyclohexyl)-2-thia-6-azaspiro[3.4]octane 2,2-dioxide] | 0.014 µM | 0.016 µM |
| CC(C)n1nc(C(F)(F)F)cc1[C@H]1CC[C@@H](N2CCC3(C2)CS(=O)(=O)C3)CC1 [Compound 8B, 6-((1s,4s)-4-(1-isopropyl-3-(trifluoromethyl)-1H-pyrazol-5-yl)cyclohexyl)-2-thia-6-azaspiro[3.4]octane 2,2-dioxide] | 0.026 µM | 0.021 µM |
| O=S1(=O)CC2(CCN([C@H]3CC[C@H](c4cc(C(F)(F)F)nn4C4CC4)CC3)C2)C1 [Compound 12A, 6-((1r,4r)-4-(1-Cyclopropyl-3-(trifluoromethyl)-1H-pyrazol-5-yl)cyclohexyl)-2-thia-6-azaspiro[3.4]octane 2,2-dioxide] | 0.011 µM | 0.028 µM |
| O=S1(=O)CC2(CCN([C@H]3CC[C@@H](c4cc(C(F)(F)F)nn4C4CC4)CC3)C2)C1 [Compound 12B, 6-((1s,4s)-4-(1-Cyclopropyl-3-(trifluoromethyl)-1H-pyrazol-5-yl)cyclohexyl)-2-thia-6-azaspiro[3.4]octane 2,2-dioxide] | 0.023 µM | 0.029 µM |
| O=S1(=O)CC2(CCN([C@H]3CC[C@H](c4ccc(C(F)(F)F)nc4)CC3)C2)C1 [Compound 14A, 6-((1r,4r)-4-(6-(Trifluoromethyl)pyridin-3-yl)cyclohexyl)-2-thia-6-azaspiro[3.4]octane 2,2-dioxide] | 0.011 µM | 0.035 µM |
| O=S1(=O)CC2(CCN([C@H]3CC[C@@H](c4ccc(C(F)(F)F)nc4)CC3)C2)C1 [Compound 14B, 6-((1s,4s)-4-(6-(Trifluoromethyl)pyridin-3-yl)cyclohexyl)-2-thia-6-azaspiro[3.4]octane 2,2-dioxide] | 0.043 µM | 0.03 µM |
| CCn1nc(C(F)(F)F)cc1[C@H]1CC[C@H](N2CCC3(C2)CS(=O)(=O)C3)CC1 [Compound 15, 6-((1r,4r)-4-(1-Ethyl-3-(trifluoromethyl)-1H-pyrazol-5-yl)cyclohexyl)-2-thia-6-azaspiro[3.4]octane 2,2-dioxide] | 0.004 µM | 0.025 µM |
| CCn1nc([C@H]2CC[C@H](N3CCC4(C3)CS(=O)(=O)C4)CC2)cc1C(F)(F)F [Compound 16, 6-((1r,4r)-4-(1-Ethyl-5-(trifluoromethyl)-1H-pyrazol-3-yl)cyclohexyl)-2-thia-6-azaspiro[3.4]octane 2,2-dioxide] | 0.012 µM | 0.036 µM |
| Cc1cc(C(F)(F)F)ncc1[C@H]1CC[C@@H](N2CCC3(C2)CS(=O)(=O)C3)CC1 [Compound 21A, 6-((1s,4s)-4-(4-Methyl-6-(trifluoromethyl)pyridin-3-yl)cyclohexyl)-2-thia-6-azaspiro[3.4]octane 2,2-dioxide] | 0.012 µM | 0.023 µM |
| Cc1cc(C(F)(F)F)ncc1[C@H]1CC[C@H](N2CCC3(C2)CS(=O)(=O)C3)CC1 [Compound 21B, 6-((1r,4r)-4-(4-Methyl-6-(trifluoromethyl)pyridin-3-yl)cyclohexyl)-2-thia-6-azaspiro[3.4]octane 2,2-dioxide] | 0.05 µM | 0.048 µM |
| O=S1(=O)CC2(CCN([C@H]3CC[C@@H](c4cc(C(F)(F)F)nn4C4CCC4)CC3)C2)C1 [Compound 23A, 6-((1s,4s)-4-(1-Cyclobutyl-3-(trifluoromethyl)-1H-pyrazol-5-yl)cyclohexyl)-2-thia-6-azaspiro[3.4]octane 2,2-dioxide] | 0.031 µM | 0.026 µM |
